Data set [1] can be described thus: Metabolic stability in phosphate buffer saline assessed as biotransformation after 24 hrs relative to unaltered compound. The data set is classed as ADME. Particulars: phosphate buffered saline; read-out: Activity.
Data set [2] in a line: Metabolic stability in human saliva assessed as biotransformation after 24 hrs relative to unaltered compound. It counts as ADME. Particulars: read-out: Activity.
The nature of data set [3]: Metabolic stability in human RBC assessed as biotransformation after 24 hrs relative to unaltered compound. It counts as ADME, cell-based, Erythrocyte. As to conditions: red blood cells (RBC), read-out: Activity.
A short description of data set [4]: Metabolic stability in human RBC assessed as nitrite or nitrate production after 24 hrs. The data set is classed as ADME, cell-based. Particulars: erythrocyte.
Data set [5] has as its target T1, Organic cation/carnitine transporter 2 (Rattus norvegicus, UniProt O70594).
T1 sequence (O70594 whole entry): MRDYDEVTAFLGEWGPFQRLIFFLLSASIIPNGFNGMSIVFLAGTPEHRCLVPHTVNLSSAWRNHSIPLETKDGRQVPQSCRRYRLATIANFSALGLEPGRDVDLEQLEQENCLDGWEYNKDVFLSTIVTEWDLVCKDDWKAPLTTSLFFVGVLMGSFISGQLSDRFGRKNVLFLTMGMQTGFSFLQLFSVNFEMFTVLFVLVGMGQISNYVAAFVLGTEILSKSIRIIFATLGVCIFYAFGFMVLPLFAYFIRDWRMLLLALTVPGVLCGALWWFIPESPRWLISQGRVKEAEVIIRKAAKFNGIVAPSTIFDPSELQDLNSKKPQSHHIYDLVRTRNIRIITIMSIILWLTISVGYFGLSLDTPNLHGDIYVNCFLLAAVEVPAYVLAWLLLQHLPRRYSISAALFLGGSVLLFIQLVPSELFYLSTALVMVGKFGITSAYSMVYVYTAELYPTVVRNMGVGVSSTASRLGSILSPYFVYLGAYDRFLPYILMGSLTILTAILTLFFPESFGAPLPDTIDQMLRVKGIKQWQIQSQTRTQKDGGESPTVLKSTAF
Description: Inhibition of rat kidney brush border membrane OCTN2 transporter assessed as [3H]carnitine uptake after 10 mins.

Data set [6] deals with T2, OCTN2 (organic cation/carnitine transporter 2) (Rattus norvegicus, UniProt O70594).
T2 sequence (O70594 whole entry): T1 sequence (O70594 whole entry)
Description: Inhibition of rat kidney brush border membrane OCTN2 transporter assessed as [3H]carnitine uptake after 30 mins relative to control. Also on record: scale not given: the % may be the effect or the level left. Particulars: probe [3H]carnitine, read-out: Activity.

Data set [7] in a line: Metabolic stability in human plasma assessed as biotransformation after 24 hrs relative to unaltered compound.

The structures appear in SMILES notation.

In the case of `C[N+](C)(C)C[C@H](CC(=O)O)OC(=O)CCCCCO[N+](=O)[O-].[Cl-]`, the degraded at 24 h in data set [1] turned out to be 100%. For the same compound, the results for the metabolised at 24 h in data set [2], in data set [3] and in data set [7] were 100%, 100% and 45%, respectively. Moreover, in data set [4], the Activity came out at 23 nmol/mL. Moreover, the IC50 in data set [5] is 76 µM. Also, in data set [6], the activity at 0.5 h stood at 20%.
Take `CCOC(=O)C[C@@H](C[N+](C)(C)C)OC(=O)CCCCCO[N+](=O)[O-].[Cl-]`: the degraded at 24 h in data set [1] was found to be 100%. Further, the metabolised at 24 h in data set [2], in data set [3] and in data set [7] was 100% in each case. Also, in data set [4], the Activity came to 22 nmol/mL. Moreover, the activity at 0.5 h in data set [6] came to 1.5%.
As to `CCOC(=O)C[C@@H](C[N+](C)(C)C)OC(=O)CCCCCCCCCCCCCCCO[N+](=O)[O-].[Cl-]`, the degraded at 24 h in data set [1] was determined as 100%. The metabolised at 24 h stood at 75% in data set [2], 73% in data set [3] and 100% in data set [7]. In data set [4], the Activity turned out to be 40 nmol/mL. In data set [5], the IC50 is 443 µM. For the same compound, in data set [6], the activity at 0.5 h is 3.1%.
For the compound `C[N+](C)(C)C[C@H](CC(=O)O)OC(=O)CCCCCCCCCCCCCCCO[N+](=O)[O-].[Cl-]`, the degraded at 24 h in data set [1] was 100%. Moreover, the metabolised at 24 h is 100% in data set [2], 56% in data set [3] and 100% in data set [7]. Further, the Activity in data set [4] was determined as 62 nmol/mL. In data set [5], the IC50 was found to be 53 µM. Besides, the activity at 0.5 h in data set [6] turned out to be 16.3%.

The values above are taken from ChEMBL document CHEMBL1143952, “Synthesis and characterization of carnitine nitro-derivatives” (Bioorg Med Chem, 2008).
